Source: the supplement of paper PMC10307832

What was measured:
Test in all cases: relative viability (nuclei count vs DMSO), 5 days (fraction); higher = more cells survive
A-427 = test system: A-427
How it was run: (§1)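 Five library-drug doses in √10 steps were combined with a fixed anchor-drug dose, or a single drug was given alone, by pin tool to lung cancer cell lines in 1536-well plates the day after seeding. Nuclei were stained and counted after 5 days. Relative viability is the nuclei count in treated wells over that in vehicle wells, taken as the median of duplicate plates.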

LC-2-ad = test system: LC-2-ad
How it was run: as §1

HCC-15 = test system: HCC-15
How it was run: as §1

NCI-H358 = test system: NCI-H358
How it was run: as §1

NCI-H1975 = test system: NCI-H1975
How it was run: as §1

RERF-LC-KJ = test system: RERF-LC-KJ
How it was run: as §1

NCI-H2228 = test system: NCI-H2228
How it was run: as §1

PC-3 [JPC-3] = test system: PC-3 [JPC-3]
How it was run: as §1

NCI-H2126 = test system: NCI-H2126
How it was run: as §1

LXF-289 = test system: LXF-289
How it was run: as §1

HOP-62 = test system: HOP-62
How it was run: as §1

NCI-H1755 = test system: NCI-H1755
How it was run: as §1

NCI-H647 = test system: NCI-H647
How it was run: as §1

NCI-H2342 = test system: NCI-H2342
How it was run: as §1

NCI-H2347 = test system: NCI-H2347
How it was run: as §1

HCC-78 = test system: HCC-78
How it was run: as §1

SK-LU-1 = test system: SK-LU-1
How it was run: as §1

NCI-H522 = test system: NCI-H522
How it was run: as §1

NCI-H1734 = test system: NCI-H1734
How it was run: as §1

SW 1573 = test system: SW 1573
How it was run: as §1

NCI-H1792 = test system: NCI-H1792
How it was run: as §1

NCI-H1915 = test system: NCI-H1915
How it was run: as §1

Cc1sc2c(c1C)C(c1ccc(Cl)cc1)=N[C@@H](CC(=O)OC(C)(C)C)c1nnc(C)n1-2 [JQ1] + CC(=O)c1c(C)c2cnc(Nc3ccc(N4CCNCC4)cn3)nc2n(C2CCCC2)c1=O [Palbociclib] (partner 0.5 µM)
relative viability (A-427; first compound 0.04 µM): 0.524
relative viability (A-427; first compound 0.1265 µM): 0.493
relative viability (A-427; first compound 0.4 µM): 0.457
relative viability (A-427; first compound 1.265 µM): 0.445
relative viability (A-427; first compound 4 µM): 0.375
relative viability (LC-2-ad; first compound 0.04 µM): 0.514
relative viability (LC-2-ad; first compound 0.1265 µM): 0.433
relative viability (LC-2-ad; first compound 0.4 µM): 0.342
relative viability (LC-2-ad; first compound 1.265 µM): 0.279
relative viability (LC-2-ad; first compound 4 µM): 0.281
relative viability (HCC-15; first compound 0.04 µM): 0.648
relative viability (HCC-15; first compound 0.1265 µM): 0.585
relative viability (HCC-15; first compound 0.4 µM): 0.64
relative viability (HCC-15; first compound 1.265 µM): 0.561
relative viability (HCC-15; first compound 4 µM): 0.395
relative viability (NCI-H358; first compound 0.04 µM): 0.168
relative viability (NCI-H358; first compound 0.1265 µM): 0.163
relative viability (NCI-H358; first compound 0.4 µM): 0.153
relative viability (NCI-H358; first compound 1.265 µM): 0.145
relative viability (NCI-H358; first compound 4 µM): 0.155
relative viability (NCI-H1975; first compound 0.04 µM): 0.607
relative viability (NCI-H1975; first compound 0.1265 µM): 0.38
relative viability (NCI-H1975; first compound 0.4 µM): 0.457
relative viability (NCI-H1975; first compound 1.265 µM): 0.287
relative viability (NCI-H1975; first compound 4 µM): 0.248
relative viability (RERF-LC-KJ; first compound 0.04 µM): 1.13
relative viability (RERF-LC-KJ; first compound 0.1265 µM): 0.868
relative viability (RERF-LC-KJ; first compound 0.4 µM): 0.887
relative viability (RERF-LC-KJ; first compound 1.265 µM): 0.254
relative viability (RERF-LC-KJ; first compound 4 µM): 0.246
relative viability (NCI-H2228; first compound 0.04 µM): 0.657
relative viability (NCI-H2228; first compound 0.1265 µM): 0.704
relative viability (NCI-H2228; first compound 0.4 µM): 0.641
relative viability (NCI-H2228; first compound 1.265 µM): 0.293
relative viability (NCI-H2228; first compound 4 µM): 0.379
relative viability (PC-3 [JPC-3]; first compound 0.04 µM): 0.532
relative viability (PC-3 [JPC-3]; first compound 0.1265 µM): 0.554
relative viability (PC-3 [JPC-3]; first compound 0.4 µM): 0.513
relative viability (PC-3 [JPC-3]; first compound 1.265 µM): 0.575
relative viability (PC-3 [JPC-3]; first compound 4 µM): 0.438
relative viability (NCI-H2126; first compound 0.04 µM): 0.345
relative viability (NCI-H2126; first compound 0.1265 µM): 0.401
relative viability (NCI-H2126; first compound 0.4 µM): 0.368
relative viability (NCI-H2126; first compound 1.265 µM): 0.348
relative viability (NCI-H2126; first compound 4 µM): 0.37
relative viability (LXF-289; first compound 0.04 µM): 0.562
relative viability (LXF-289; first compound 0.1265 µM): 0.591
relative viability (LXF-289; first compound 0.4 µM): 0.576
relative viability (LXF-289; first compound 1.265 µM): 0.426
relative viability (LXF-289; first compound 4 µM): 0.353
relative viability (HOP-62; first compound 0.04 µM): 0.424
relative viability (HOP-62; first compound 0.1265 µM): 0.323
relative viability (HOP-62; first compound 0.4 µM): 0.152
relative viability (HOP-62; first compound 1.265 µM): 0.106
relative viability (HOP-62; first compound 4 µM): 0.0968
relative viability (NCI-H1755; first compound 0.04 µM): 0.434
relative viability (NCI-H1755; first compound 0.1265 µM): 0.426
relative viability (NCI-H1755; first compound 0.4 µM): 0.416
relative viability (NCI-H1755; first compound 1.265 µM): 0.388
relative viability (NCI-H1755; first compound 4 µM): 0.353
relative viability (NCI-H647; first compound 0.04 µM): 0.372
relative viability (NCI-H647; first compound 0.1265 µM): 0.231
relative viability (NCI-H647; first compound 0.4 µM): 0.13
relative viability (NCI-H647; first compound 1.265 µM): 0.113
relative viability (NCI-H647; first compound 4 µM): 0.0792
relative viability (NCI-H2342; first compound 0.04 µM): 0.526
relative viability (NCI-H2342; first compound 0.1265 µM): 0.501
relative viability (NCI-H2342; first compound 0.4 µM): 0.535
relative viability (NCI-H2342; first compound 1.265 µM): 0.574
relative viability (NCI-H2342; first compound 4 µM): 0.538
relative viability (NCI-H2347; first compound 0.04 µM): 0.446
relative viability (NCI-H2347; first compound 0.1265 µM): 0.393
relative viability (NCI-H2347; first compound 0.4 µM): 0.385
relative viability (NCI-H2347; first compound 1.265 µM): 0.327
relative viability (NCI-H2347; first compound 4 µM): 0.32
relative viability (HCC-78; first compound 0.04 µM): 0.489
relative viability (HCC-78; first compound 0.1265 µM): 0.523
relative viability (HCC-78; first compound 0.4 µM): 0.511
relative viability (HCC-78; first compound 1.265 µM): 0.469
relative viability (HCC-78; first compound 4 µM): 0.513
relative viability (SK-LU-1; first compound 0.04 µM): 0.405
relative viability (SK-LU-1; first compound 0.1265 µM): 0.359
relative viability (SK-LU-1; first compound 0.4 µM): 0.35
relative viability (SK-LU-1; first compound 1.265 µM): 0.282
relative viability (SK-LU-1; first compound 4 µM): 0.239
relative viability (NCI-H522; first compound 0.04 µM): 1.04
relative viability (NCI-H522; first compound 0.1265 µM): 0.881
relative viability (NCI-H522; first compound 0.4 µM): 0.697
relative viability (NCI-H522; first compound 1.265 µM): 0.478
relative viability (NCI-H522; first compound 4 µM): 0.39
relative viability (NCI-H1734; first compound 0.04 µM): 0.365
relative viability (NCI-H1734; first compound 0.1265 µM): 0.334
relative viability (NCI-H1734; first compound 0.4 µM): 0.313
relative viability (NCI-H1734; first compound 1.265 µM): 0.279
relative viability (NCI-H1734; first compound 4 µM): 0.303
relative viability (SW 1573; first compound 0.04 µM): 0.372
relative viability (SW 1573; first compound 0.1265 µM): 0.274
relative viability (SW 1573; first compound 0.4 µM): 0.202
relative viability (SW 1573; first compound 1.265 µM): 0.129
relative viability (SW 1573; first compound 4 µM): 0.118
relative viability (NCI-H1792; first compound 0.04 µM): 0.6
relative viability (NCI-H1792; first compound 0.4 µM): 0.538
relative viability (NCI-H1792; first compound 1.265 µM): 0.446
relative viability (NCI-H1792; first compound 4 µM): 0.385
relative viability (NCI-H1915; first compound 0.04 µM): 0.542
relative viability (NCI-H1915; first compound 0.4 µM): 0.37
relative viability (NCI-H1915; first compound 1.265 µM): 0.295
relative viability (NCI-H1915; first compound 4 µM): 0.179
